Measurements published in US8013144B2, “hnRNP K expression-inhibiting compound and siRNA sequence thereof” (Chang Gung University, priority 2009, dated 2011).

System: NPC-TW02 and NPC-TW02/TP
Experiment: cytotoxicity assay with 5′-DFUR, apoptosis assay (annexin V)
Assay type: cell-based
Conditions: TP over-expression, 72 hours
Protocol: Refer to FIG. 1A and FIG. 1B. A cell line of nasopharyngeal cancer NPC-TW02/TP is established to stably express exogenous TP. First, the TP-expression carrier pcDNA3.1-PT is transfected to the cell line. Next, the cell line is screened and then cultivated in a culture solution having 500 μg/ml G418. Next is performed a cytotoxicity assay, wherein NPC-TW02 and NPC-TW02/TP are respectively processed with 5′-DFUR (a product of Sigma-Aldrich, St. Louis, Mo., USA). Next, the cell lines are further cultivated for 72 hours. Next, the cell membranes are everted to expose phosphatidylserine. Then, phosphatidylserine is analyzed with the Vybrant® Apoptosis Assay Kit #2 (a product of Invitrogen).
Firstly, 2×10^5 cells are taken out and washed with PBS. Next, a buffer solution (10 mM HEPES, 140 mM NaCl, 2.5 mM CaCl2, pH 7.4) is used to adjust the solution to have a cell concentration of 2×10^6/mL. Next, 5 μl Alexa Fluor® 488 annexin V is added into […], and then the cell suspension reacts at an ambient temperature for 15 minutes. Next, the cell specimens (10000 events) are analyzed with a flow cytometer (a product of Becton Dickinson), as shown in FIG. 3. […] Then, phosphatidylserine is analyzed with the Vybrant® Apoptosis Assay Kit #2 (a product of Invitrogen).

Structure (SMILES): C[C@H]1O[C@@H](n2cc(F)c(=O)[nH]c2=O)[C@H](O)[C@@H]1O [5′-DFUR, 5-fluoro-5′-deoxyuridine]
- sensitivity of nasopharyngeal cancer cells to 5′-DFUR (apoptosis): more sensitive
